Source: ChEMBL document CHEMBL3046127, “Homo- and hetero-dimers of inactive organophosphorous group binding at dual sites of AChE” (Bioorg Med Chem Lett, 2011)

Tests used:
Lipaphis erysimi = test: Insecticidal activity against Lipaphis erysimi (mustard aphids) assessed as insect mortality at 300 mg/mL; format: functional; set-up: dose or concentration left out as unconfirmed; settings: in Brassica
Tetranychus cinnabarinus = test: Insecticidal activity against Tetranychus cinnabarinus (carmine spider mite) assessed as insect mortality at 300 mg/mL; format: functional; set-up: dose or concentration left out as unconfirmed
Acetylcholinesterase [1] = molecular target: Acetylcholinesterase (Musca domestica, UniProt Q7YWJ9); test: Inhibition of acetylcholinesterase in Musca domestica (house fly) brain by Ellman's method
Acetylcholinesterase (Musca domestica, UniProt Q7YWJ9), sequence (Q7YWJ9 whole entry): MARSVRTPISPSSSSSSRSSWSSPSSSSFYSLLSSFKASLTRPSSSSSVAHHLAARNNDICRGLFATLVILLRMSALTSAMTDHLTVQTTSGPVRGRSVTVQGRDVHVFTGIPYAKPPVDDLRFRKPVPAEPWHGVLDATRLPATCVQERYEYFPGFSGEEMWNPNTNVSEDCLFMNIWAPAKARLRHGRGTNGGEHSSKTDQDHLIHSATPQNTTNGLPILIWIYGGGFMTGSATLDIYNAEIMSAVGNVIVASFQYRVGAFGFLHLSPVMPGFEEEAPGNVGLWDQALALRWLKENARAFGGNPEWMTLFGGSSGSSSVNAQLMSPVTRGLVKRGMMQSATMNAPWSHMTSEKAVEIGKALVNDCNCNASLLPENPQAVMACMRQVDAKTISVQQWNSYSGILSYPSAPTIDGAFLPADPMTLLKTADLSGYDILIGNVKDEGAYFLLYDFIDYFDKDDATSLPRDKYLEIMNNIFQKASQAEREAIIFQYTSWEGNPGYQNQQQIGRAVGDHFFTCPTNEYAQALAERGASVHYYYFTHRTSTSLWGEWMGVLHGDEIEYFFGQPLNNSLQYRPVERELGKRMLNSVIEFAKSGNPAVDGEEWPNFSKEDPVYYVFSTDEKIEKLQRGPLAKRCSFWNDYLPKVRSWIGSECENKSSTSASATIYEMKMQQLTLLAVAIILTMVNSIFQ

Acetylcholinesterase [2] = molecular target: Acetylcholinesterase (Drosophila melanogaster, UniProt P07140); test: Inhibition of acetylcholinesterase in Drosophila melanogaster brain by Ellman's method
Acetylcholinesterase (Drosophila melanogaster, UniProt P07140), sequence (P07140 whole entry): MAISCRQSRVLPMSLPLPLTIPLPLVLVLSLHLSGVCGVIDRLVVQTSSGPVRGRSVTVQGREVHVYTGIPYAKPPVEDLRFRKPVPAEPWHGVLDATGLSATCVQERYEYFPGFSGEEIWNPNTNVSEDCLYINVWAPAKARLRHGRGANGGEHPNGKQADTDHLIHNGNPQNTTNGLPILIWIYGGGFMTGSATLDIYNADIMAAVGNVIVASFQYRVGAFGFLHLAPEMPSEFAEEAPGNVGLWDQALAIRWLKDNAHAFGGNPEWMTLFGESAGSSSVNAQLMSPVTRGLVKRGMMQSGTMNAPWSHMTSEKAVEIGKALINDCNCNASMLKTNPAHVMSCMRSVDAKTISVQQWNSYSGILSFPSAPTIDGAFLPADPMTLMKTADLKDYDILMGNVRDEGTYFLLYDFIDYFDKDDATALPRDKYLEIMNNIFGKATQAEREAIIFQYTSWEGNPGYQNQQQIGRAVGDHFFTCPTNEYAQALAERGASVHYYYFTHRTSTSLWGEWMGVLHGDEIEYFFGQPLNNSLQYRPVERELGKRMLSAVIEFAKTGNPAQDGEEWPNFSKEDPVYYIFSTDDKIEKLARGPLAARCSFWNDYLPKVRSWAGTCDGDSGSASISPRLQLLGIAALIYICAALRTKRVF

CCOP(=O)(OCC)SCCCCCSP(=O)(OCC)OCC
mortality (Lipaphis erysimi): 42.6% | mortality (Tetranychus cinnabarinus): 85.7% | IC50 (Acetylcholinesterase [1]): 4600 µM | IC50 (Acetylcholinesterase [2]): 12.3 µM

CCOP(=O)(OCC)SCCCCCCCCCCN1C(=O)c2ccccc2C1=O
mortality (Lipaphis erysimi): 92.8% | mortality (Tetranychus cinnabarinus): 92.2% | IC50 (Acetylcholinesterase [1]): 80.9 µM | IC50 (Acetylcholinesterase [2]): 113 µM

CCOP(=O)(OCC)SCCCCCCCCN1C(=O)c2ccccc2C1=O
mortality (Lipaphis erysimi): 62.5% | mortality (Tetranychus cinnabarinus): 85% | IC50 (Acetylcholinesterase [1]): 13.8 µM | IC50 (Acetylcholinesterase [2]): 4.5 µM

CCOP(=O)(OCC)SCCCCCCCCCSP(=O)(OCC)OCC
mortality (Lipaphis erysimi): 100% | mortality (Tetranychus cinnabarinus): 78.6% | IC50 (Acetylcholinesterase [1]): 197 µM | IC50 (Acetylcholinesterase [2]): 1.43 µM

CCOP(=O)(OCC)SCCCCCCCCSP(=O)(OCC)OCC
mortality (Lipaphis erysimi): 97.5% | mortality (Tetranychus cinnabarinus): 87.7% | IC50 (Acetylcholinesterase [1]): 331 µM | IC50 (Acetylcholinesterase [2]): 4.84 µM

CCOP(=O)(OCC)SCCCCCCCCCN1C(=O)c2ccccc2C1=O
mortality (Lipaphis erysimi): 88.3% | mortality (Tetranychus cinnabarinus): 77.6% | IC50 (Acetylcholinesterase [1]): 267 µM | IC50 (Acetylcholinesterase [2]): 37.5 µM

CCOP(=O)(OCC)SCCCCSP(=O)(OCC)OCC
mortality (Lipaphis erysimi): 89.4% | mortality (Tetranychus cinnabarinus): 82% | IC50 (Acetylcholinesterase [1]): 107 µM | IC50 (Acetylcholinesterase [2]): 8.07 µM

CCOP(=O)(OCC)SCCCCCCN1C(=O)c2ccccc2C1=O
mortality (Lipaphis erysimi): 100% | mortality (Tetranychus cinnabarinus): 87.3% | IC50 (Acetylcholinesterase [1]): 9.42 µM | IC50 (Acetylcholinesterase [2]): 3.81 µM

CCOP(=O)(OCC)SCCCN1C(=O)c2ccccc2C1=O
mortality (Lipaphis erysimi): 97.8% | mortality (Tetranychus cinnabarinus): 92.9% | IC50 (Acetylcholinesterase [1]): 155 µM | IC50 (Acetylcholinesterase [2]): 8.29 µM

CCOP(=O)(OCC)SCCCCCCSP(=O)(OCC)OCC
mortality (Lipaphis erysimi): 95.4% | mortality (Tetranychus cinnabarinus): 92.4% | IC50 (Acetylcholinesterase [1]): 8.9 µM | IC50 (Acetylcholinesterase [2]): 0.87 µM

CCOP(=O)(OCC)SCCCCCCCSP(=O)(OCC)OCC
mortality (Lipaphis erysimi): 97.3% | mortality (Tetranychus cinnabarinus): 83.3% | IC50 (Acetylcholinesterase [1]): 2100 µM | IC50 (Acetylcholinesterase [2]): 10.2 µM

CCOP(=O)(OCC)SCCCSP(=O)(OCC)OCC
mortality (Lipaphis erysimi): 90.8% | mortality (Tetranychus cinnabarinus): 98.4% | IC50 (Acetylcholinesterase [1]): 32.4 µM | IC50 (Acetylcholinesterase [2]): 1.64 µM

CCOP(O)(=S)OCC [O,O-DIETHYL S-HYDROGEN PHOSPHOROTHIOATE]
IC50 (Acetylcholinesterase [1]): > 25000 µM | IC50 (Acetylcholinesterase [2]): > 40000 µM

CCOP(=O)(OCC)SCCCCCCCCCCSP(=O)(OCC)OCC
mortality (Lipaphis erysimi): 96.6% | mortality (Tetranychus cinnabarinus): 93.3% | IC50 (Acetylcholinesterase [1]): 224 µM | IC50 (Acetylcholinesterase [2]): 1.76 µM

CCOP(=O)(OCC)SCCCCCN1C(=O)c2ccccc2C1=O
mortality (Lipaphis erysimi): 96.5% | mortality (Tetranychus cinnabarinus): 81.2% | IC50 (Acetylcholinesterase [1]): 114 µM | IC50 (Acetylcholinesterase [2]): 12.3 µM

CCOP(=S)(OCC)Oc1nc(Cl)c(Cl)cc1Cl [CHLORPYRIFOS]
mortality (Lipaphis erysimi): 100% | mortality (Tetranychus cinnabarinus): 71.1% | IC50 (Acetylcholinesterase [1]): 9.51 µM | IC50 (Acetylcholinesterase [2]): 1.83 µM

CCOP(=O)(OCC)SCCCCCCCN1C(=O)c2ccccc2C1=O
mortality (Lipaphis erysimi): 88% | mortality (Tetranychus cinnabarinus): 89.3% | IC50 (Acetylcholinesterase [1]): 2.08 µM | IC50 (Acetylcholinesterase [2]): 1.84 µM

CCOP(=O)(OCC)SCCCCN1C(=O)c2ccccc2C1=O
mortality (Lipaphis erysimi): 97.7% | mortality (Tetranychus cinnabarinus): 88.9% | IC50 (Acetylcholinesterase [1]): 25.8 µM | IC50 (Acetylcholinesterase [2]): 9.92 µM
